Data reported in patent US9102678B2, “Compounds and methods for inhibiting mitotic progression” (Millennium Pharmaceuticals, Inc., priority 2004, dated 2015).

target: T1, recombinant murine Aurora A enzyme (Mus musculus, UniProt P97477); assay: Aurora A DELFIA Kinase Assay; format: biochemical; details: mouse Aurora A, 250 μM ATP; threshold less than or equal to 100 nM; read-out: IC50
T1 construct: hexahistidine (His6) (N); made in house; host or cells: insect cells, baculovirus (Bac-to-Bac, Invitrogen)
T1 sequence (P97477 whole entry): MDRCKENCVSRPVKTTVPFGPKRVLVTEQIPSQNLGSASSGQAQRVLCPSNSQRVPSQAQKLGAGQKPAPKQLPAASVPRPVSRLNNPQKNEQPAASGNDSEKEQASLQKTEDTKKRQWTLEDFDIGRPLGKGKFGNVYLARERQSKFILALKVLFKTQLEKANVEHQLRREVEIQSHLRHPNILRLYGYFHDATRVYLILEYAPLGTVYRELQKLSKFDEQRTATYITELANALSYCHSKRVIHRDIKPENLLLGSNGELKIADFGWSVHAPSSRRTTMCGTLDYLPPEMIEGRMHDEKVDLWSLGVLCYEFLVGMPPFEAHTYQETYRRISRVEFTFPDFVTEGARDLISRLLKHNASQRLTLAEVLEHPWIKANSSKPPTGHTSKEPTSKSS

IC50, ≤ 100 nM:
CNCCN(C)C(=O)c1cc(Nc2ncc3c(n2)-c2ccc(Cl)cc2C(c2c(F)cccc2F)=NC3)ccc1Cl [Compound I-283, 2-chloro-5-{[9-chloro-7-(2,6-difluorophenyl)-5H-pyrimido[5,4-d][2]benzazepin-2-yl]amino}-N-methyl-N-[2-(methylamino)ethyl]benzamide]
N=C(c1ccc(Nc2ncc3c(n2)-c2ccc(Cl)cc2C(c2c(F)cccc2F)=NC3)cc1)N1CCC(N)C1 (centres unmarked) [Compound I-284]
OC1CN=C(c2ccc(Nc3ncc4c(n3)-c3ccc(Cl)cc3C(c3c(F)cccc3F)=NC4)cc2)NC1 (centres unmarked) [Compound I-285, 2-(4-{[9-chloro-7-(2,6-difluorophenyl)-5H-pyrimido[5,4-d][2]benzazepin-2-yl]amino}phenyl)-1,4,5,6-tetrahydropyrimidin-5-ol]
COc1cccc(F)c1C1=NCc2cnc(Nc3ccc(C(=O)N4CC(N)C4)cc3)nc2-c2ccc(Cl)cc21 [Compound I-286]
NC1CCN(C(=O)c2ccc(Nc3ncc4c(n3)-c3ccc(Cl)cc3C(c3ccccc3C(F)(F)F)=NC4)cc2)CC1 [Compound I-287, N-{4[(4-aminopiperidin-1-yl)carbonyl]phenyl}-9-chloro-7-[2-(trifluoromethyl)phenyl]-5H-pyrimido[5,4-d][2]benzazepin-2-amine]
CNC1CCN(C(=O)c2ccc(Nc3ncc4c(n3)-c3ccc(Cl)cc3C(c3ccccc3C(F)(F)F)=NC4)cc2)CC1 [Compound I-288, 9-chloro-N-(4-{[4-(methylamino)piperidin-1-yl]carbonyl}phenyl)-7-[2-(trifluoromethyl)phenyl]-5H-pyrimido[5,4-d][2]benzazepin-2-amine]
NC1CCN(C(=O)c2ccc(Nc3ncc4c(n3)-c3ccc(Cl)cc3C(c3ccccc3C(F)(F)F)=NC4)cc2)C1 (centres unmarked) [Compound I-289, N-{4-[(3-aminopyrrolidin-1-yl)carbonyl]phenyl}-9-chloro-7-[2-(trifluoromethyl)phenyl]-5H-pyrimido[5,4-d][2]benzazepin-2-amine]
CNC1CCN(C(=O)c2ccc(Nc3ncc4c(n3)-c3ccc(Cl)cc3C(c3ccccc3C(F)(F)F)=NC4)cc2)C1 (centres unmarked) [Compound I-290, 9-chloro-N-(4-{[3-(methylamino)pyrrolidin-1-yl]carbonyl}phenyl)-7-[2-(trifluoromethyl)phenyl]-5H-pyrimido[5,4-d][2]benzazepin-2-amine]
CNC1CN(C(=O)c2cc(Nc3ncc4c(n3)-c3ccc(Cl)cc3C(c3c(F)cccc3F)=NC4)ccc2Cl)C1 [Compound I-291, 9-chloro-N-(4-chloro-3-{[3-(methylamino)azetidin-1-yl]carbonyl}phenyl)-7-(2,6-difluorophenyl)-5H-pyrimido[5,4-d][2]benzazepin-2-amine]
NC1CCN(C(=O)c2cc(Nc3ncc4c(n3)-c3ccc(Cl)cc3C(c3c(F)cccc3F)=NC4)ccc2Cl)CC1 [Compound I-292, N-{3-[(4-aminopiperidin-1-yl)carbonyl]-4-chlorophenyl}-9-chloro-7-(2,6-difluorophenyl)-5H-pyrimido[5,4-d][2]benzazepin-2-amine]
CN(C)C1CCCN(C(=O)c2ccc(Nc3ncc4c(n3)-c3ccc(Cl)cc3C(c3c(F)cccc3F)=NC4)cc2)C1 (centres unmarked) [Compound I-293, 9-chloro-7-(2,6-difluorophenyl)-N-(4-{[3-(dimethylamino)piperidin-1-yl]carbonyl}phenyl)-5H-pyrimido[5,4-d][2]benzazepin-2-amine]
COC(=O)C1(N)CCN(C(=O)c2ccc(Nc3ncc4c(n3)-c3ccc(Cl)cc3C(c3c(F)cccc3F)=NC4)cc2)CC1 [Compound I-294, methyl 4-amino-1-(4-{[9-chloro-7-(2,6-difluorophenyl)-5H-pyrimido[5,4-d][2]benzazepin-2-yl]amino}benzoyl)piperidine-4-carboxylate]
NC1(C(=O)O)CCN(C(=O)c2ccc(Nc3ncc4c(n3)-c3ccc(Cl)cc3C(c3c(F)cccc3F)=NC4)cc2)CC1 [Compound I-295, 4-amino-1-(4-{[9-chloro-7-(2,6-difluorophenyl)-5H-pyrimido[5,4-d][2]benzazepin-2-yl]amino}benzoyl)piperidine-4-carboxylic acid]
NC1CN(C(=O)c2ccc(Nc3ncc4c(n3)-c3ccc(Cl)cc3C(c3ccccc3C(F)(F)F)=NC4)cc2)C1 [Compound I-296, N-{4-[(3-aminoazetidin-1-yl)carbonyl]phenyl}-9-chloro-7-[2-(trifluoromethyl)phenyl]-5H-pyrimido[5,4-d][2]benzazepin-2-amine]
CNC1CN(C(=O)c2ccc(Nc3ncc4c(n3)-c3ccc(Cl)cc3C(c3ccccc3C(F)(F)F)=NC4)cc2)C1 [Compound I-297, 9-chloro-N-(4-{[3-(methylamino)azetidin-1-yl]carbonyl}phenyl)-7-[2-(trifluoromethyl)phenyl]-5H-pyrimido[5,4-d][2]benzazepin-2-amine]
NC1CCN(C(=O)c2ccc(Nc3ncc4c(n3)-c3ccc(Cl)cc3C(c3ccccn3)=NC4)cc2)CC1 [Compound I-298, N-{4-[(4-aminopiperidin-1-yl)carbonyl]phenyl}-9-chloro-7-pyridin-2-yl-5H-pyrimido[5,4-d][2]benzazepin-2-amine]
NC1CCN(C(=O)c2ccc(Nc3ncc4c(n3)-c3ccc(Cl)cc3C(c3ccccn3)=NC4)cc2)C1 (centres unmarked) [Compound I-299, N-{4-[(3-aminopyrrolidin-1-yl)carbonyl]phenyl}-9-chloro-7-pyridin-2-yl-5H-pyrimido[5,4-d][2]benzazepin-2-amine]
CCOC(=O)C(N)CCNC(=O)c1ccc(Nc2ncc3c(n2)-c2ccc(Cl)cc2C(c2c(F)cccc2F)=NC3)cc1 (centres unmarked) [Compound I-300, ethyl 2-amino-4-[(4-{[9-chloro-7-(2,6-difluorophenyl)-5H-pyrimido[5,4-d][2]benzazepin-2-yl]amino}benzoyl)amino]butanoate]
O=C(O)c1ccc(Nc2ncc3c(n2)-c2ccc(Cl)cc2C(c2ncccc2F)=NC3)cc1 [Compound I-301, 4-{[9-chloro-7-(3-fluoropyridin-2-yl)-5H-pyrimido[5,4-d][2]benzazepin-2-yl]amino}benzoic acid]
NC1CCN(C(=O)c2ccc(Nc3ncc4c(n3)-c3ccc(Cl)cc3C(c3ncccc3F)=NC4)cc2)CC1 [Compound I-304, N-{4[(4-aminopiperidin-1-yl)carbonyl]phenyl}-9-chloro-7-(3-fluoropyridin-2-yl)-5H-pyrimido[5,4-d][2]benzazepin-2-amine]
NC1CCN(C(=O)c2ccc(Nc3ncc4c(n3)-c3ccc(Cl)cc3C(c3ncccc3F)=NC4)cc2)C1 (centres unmarked) [Compound I-305]
O=C(O)C1CN=C(c2ccc(Nc3ncc4c(n3)-c3ccc(Cl)cc3C(c3c(F)cccc3F)=NC4)cc2)N1 (centres unmarked) [Compound I-306, 2-(4-{[9-chloro-7-(2,6-difluorophenyl)-5H-pyrimido[5,4-d][2]benzazepin-2-yl]amino}phenyl)-4,5-dihydro-1H-imidazole-5-carboxylic acid]
CN(C)CC(=O)Nc1ccc(Nc2ncc3c(n2)-c2ccc(Cl)cc2C(c2c(F)cccc2F)=NC3)cc1 [Compound I-307, N-(4-{[9-chloro-7-(2,6-difluorophenyl)-5H-pyrimido[5,4-d][2]benzazepin-2-yl]amino}phenyl)-2-(dimethylamino)acetamide]
CC(C)(N)C(=O)Nc1ccc(Nc2ncc3c(n2)-c2ccc(Cl)cc2C(c2c(F)cccc2F)=NC3)cc1 [Compound I-308, 2-amino-N-(4-{[9-chloro-7-(2,6-difluorophenyl)-5H-pyrimido[5,4-d][2]benzazepin-2-yl]amino}phenyl)-2-methylpropanamide]
CCOC(=O)[C@@H](CCN)NC(=O)c1ccc(Nc2ncc3c(n2)-c2ccc(Cl)cc2C(c2c(F)cccc2F)=NC3)cc1 [Compound I-309, ethyl (2R)-4-amino-2-[(4-{[9-chloro-7-(2,6-difluorophenyl)-5H-pyrimido[5,4-d][2]benzazepin-2-yl]amino}benzoyl)amino]butanoate]
CNC(=O)C1CN(C(=O)c2ccc(Nc3ncc4c(n3)-c3ccc(Cl)cc3C(c3c(F)cccc3F)=NC4)cc2)CCN1 (centres unmarked) [Compound I-310, 4-(4-{[9-chloro-7-(2,6-difluorophenyl)-5H-pyrimido[5,4-d][2]benzazepin-2-yl]amino}benzoyl)-N-methylpiperazine-2-carboxamide]
CN(C)C1CCN(C(=O)c2ccc(Nc3ncc4c(n3)-c3ccc(Cl)cc3C(c3c(F)cccc3F)=NC4)cc2Cl)CC1 [Compound I-313, 9-chloro-N-(3-chloro-4-{[4-(dimethylamino)piperidin-1-yl]carbonyl}phenyl)-7-(2,6-difluorophenyl)-5H-pyrimido[5,4-d][2]benzazepin-2-amine]
CCOC(=O)C1CN=C(c2ccc(Nc3ncc4c(n3)-c3ccc(Cl)cc3C(c3c(F)cccc3F)=NC4)cc2)N1 (centres unmarked) [Compound I-314, ethyl 2-(4-{[9-chloro-7-(2,6-difluorophenyl)-5H-pyrimido[5,4-d][2]benzazepin-2-yl]amino}phenyl)-4,5-dihydro-1H-imidazole-5-carboxylate]
CNC1CCN(C(=O)c2ccc(Nc3ncc4c(n3)-c3ccc(Cl)cc3C(c3ccccn3)=NC4)cc2)C1 (centres unmarked) [Compound I-315, 9-chloro-N-(4-{[3-(methylamino)pyrrolidin-1-yl]carbonyl}phenyl)-7-pyridin-2-yl-5H-pyrimido[5,4-d][2]benzazepin-2-amine]
